Consider one compound from article PMC3147164 (mBio, 2011).

In one test the target is HK_4262 (Myxococcus xanthus, UniProt Q1D4I6). The conditions noted are these: excess ATP; kinase buffer pH 8.0, 10 mM MgCl2; labelled compound.
The next test addresses HK_1190 (Myxococcus xanthus, UniProt Q1DD24). The conditions noted are these: excess ATP; kinase buffer pH 8.0, 10 mM MgCl2; labelled compound.

Sequence of HK_1190 (Q1DD24 205-424): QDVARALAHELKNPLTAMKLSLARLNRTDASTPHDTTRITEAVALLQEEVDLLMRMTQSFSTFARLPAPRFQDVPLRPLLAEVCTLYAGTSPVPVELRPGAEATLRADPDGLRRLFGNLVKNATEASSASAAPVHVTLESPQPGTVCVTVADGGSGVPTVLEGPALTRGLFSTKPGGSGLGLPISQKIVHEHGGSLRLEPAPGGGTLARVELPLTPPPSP
Sequence of HK_4262 (Q1D4I6 477-702): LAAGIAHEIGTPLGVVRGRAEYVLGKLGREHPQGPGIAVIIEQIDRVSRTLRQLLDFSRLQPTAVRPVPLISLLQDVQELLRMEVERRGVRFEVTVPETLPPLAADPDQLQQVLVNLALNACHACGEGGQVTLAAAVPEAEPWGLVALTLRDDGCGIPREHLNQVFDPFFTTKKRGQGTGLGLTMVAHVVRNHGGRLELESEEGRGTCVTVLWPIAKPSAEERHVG

As for `Nc1ncnc2c1ncn2[C@@H]1O[C@H](COP(=O)(O)OP(=O)(O)OP(=O)(O)O)[C@@H](O)[C@H]1O` [ATP], the “autophosphorylation, radiolabel gel assay” value on HK_4262 and at HK_1190 was “Both kinases were capable of autophosphorylation” throughout.
